Results from patent US20260174857A1, “METHODS OF ADJUVANT TREATMENT FOR ALLERGY IMMUNOTHERAPY” (Revelation Biosciences, Inc., priority 2022, published 2026).

Columns and labels:
TLR4 [1] = biological target: T1, TLR4 (Mus musculus, UniProt Q9JHF9+Q9QUK6); assay: in vitro cell based activity assay, IP-10 upregulation in mouse macrophages (J774 cell line)
T1 construct: endogenous in cells; host or cells: J774 mouse macrophage cell line
T1 sequence (Q9QUK6 26-835): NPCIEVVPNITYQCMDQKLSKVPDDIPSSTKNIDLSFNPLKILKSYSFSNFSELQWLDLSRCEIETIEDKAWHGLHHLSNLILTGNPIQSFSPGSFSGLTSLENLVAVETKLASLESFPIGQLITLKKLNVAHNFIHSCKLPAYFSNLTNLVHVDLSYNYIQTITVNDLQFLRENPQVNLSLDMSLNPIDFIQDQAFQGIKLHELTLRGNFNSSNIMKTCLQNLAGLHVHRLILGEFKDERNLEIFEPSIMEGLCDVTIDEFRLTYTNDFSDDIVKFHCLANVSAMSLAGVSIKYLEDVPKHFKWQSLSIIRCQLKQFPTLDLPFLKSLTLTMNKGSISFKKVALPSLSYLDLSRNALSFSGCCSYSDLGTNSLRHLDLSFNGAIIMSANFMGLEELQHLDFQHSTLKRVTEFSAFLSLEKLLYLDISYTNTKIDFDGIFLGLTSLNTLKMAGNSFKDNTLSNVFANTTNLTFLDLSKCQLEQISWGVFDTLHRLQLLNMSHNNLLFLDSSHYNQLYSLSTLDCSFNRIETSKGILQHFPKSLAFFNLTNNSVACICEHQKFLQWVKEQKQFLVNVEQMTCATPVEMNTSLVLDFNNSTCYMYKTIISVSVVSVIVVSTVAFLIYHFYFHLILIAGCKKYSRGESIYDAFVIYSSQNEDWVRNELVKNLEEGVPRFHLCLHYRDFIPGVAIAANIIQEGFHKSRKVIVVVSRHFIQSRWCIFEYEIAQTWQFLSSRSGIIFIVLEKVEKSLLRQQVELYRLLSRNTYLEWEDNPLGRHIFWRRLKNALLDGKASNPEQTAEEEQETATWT
T1 sequence (Q9JHF9 19-160): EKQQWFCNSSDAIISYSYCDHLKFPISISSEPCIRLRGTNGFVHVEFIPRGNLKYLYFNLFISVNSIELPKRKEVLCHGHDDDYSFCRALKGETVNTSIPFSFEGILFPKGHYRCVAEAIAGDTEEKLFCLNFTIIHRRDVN
From the text: Interferon-β is required for production of IP-10, therefore IP-10 is considered a surrogate marker for Type I interferon activity.
(§1) IP-10 is an important cytokine associated with stimulation of the TRIF pathway. Evidence of IL-6 and IL-10 and IP-10 upregulation is confirmation that PHAD preparations as noted in this application are capable of TLR4 stimulation, with a bias toward stimulating the TRIF pathway, which is further confirmation of the amelioration or reduction of activity mediated through the MyD88 signaling pathway, which supports the amelioration of pro-inflammatory cytokine production.

TLR4 [2] = biological target: T2, TLR4 (Rattus norvegicus, UniProt Q9QX05); assay: IL-6 and IL-10 cytokine response after IV administration in rats; type: in vivo
T2 construct: from tissue; host or cells: whole animal (rat), in vivo
T2 sequence (Q9QX05 26-835): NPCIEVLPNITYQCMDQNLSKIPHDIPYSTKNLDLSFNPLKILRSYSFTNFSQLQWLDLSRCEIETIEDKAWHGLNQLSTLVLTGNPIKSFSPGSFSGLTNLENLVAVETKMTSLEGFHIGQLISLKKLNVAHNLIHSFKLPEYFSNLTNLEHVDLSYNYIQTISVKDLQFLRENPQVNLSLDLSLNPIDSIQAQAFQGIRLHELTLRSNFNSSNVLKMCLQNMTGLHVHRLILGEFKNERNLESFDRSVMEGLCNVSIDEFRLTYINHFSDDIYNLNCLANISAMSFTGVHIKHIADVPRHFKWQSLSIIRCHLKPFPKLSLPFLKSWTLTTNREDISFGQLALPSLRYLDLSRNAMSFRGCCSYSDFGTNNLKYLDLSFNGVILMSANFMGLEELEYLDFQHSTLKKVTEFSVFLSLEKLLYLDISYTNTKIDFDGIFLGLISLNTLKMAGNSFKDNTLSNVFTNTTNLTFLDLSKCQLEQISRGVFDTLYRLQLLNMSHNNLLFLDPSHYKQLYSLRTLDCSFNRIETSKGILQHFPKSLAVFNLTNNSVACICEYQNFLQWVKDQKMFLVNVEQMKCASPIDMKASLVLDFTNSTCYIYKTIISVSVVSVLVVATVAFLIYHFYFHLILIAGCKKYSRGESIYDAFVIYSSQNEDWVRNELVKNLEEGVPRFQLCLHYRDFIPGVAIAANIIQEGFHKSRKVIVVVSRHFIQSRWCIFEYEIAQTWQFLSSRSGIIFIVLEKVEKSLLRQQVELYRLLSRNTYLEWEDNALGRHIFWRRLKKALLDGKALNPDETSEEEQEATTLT
From the text: as §1

[3] = second dose at 24 hours, compared with first dose

upregulation of IP-10 as a result of TLR4 stimulation (TLR4 [1]): IP-10 upregulation as a function of dose
anti-inflammatory cytokines (e.g., IL-10) following a second dose (TLR4 [2]; [3]): larger increase
pro-inflammatory cytokines (e.g., IL-6) following a second dose (TLR4 [2]; [3]): smaller increase
inflammatory and protective cytokines following a first dose (TLR4 [2]; two doses of PHAD, after first dose): initial increase
Substance: phosphorylated hexaacyl disaccharide [PHAD]
